Assays:
Type in all cases: in vivo
[1] = system: Euschistus heros (neotropical brown stink bug); assay: Example B2: Euschistus heros (neotropical brown stink bug), sprayed soybean leaves, N2 nymphs; conditions: 120 h, application rate of 200 ppm, 5 days after infestation, N2 nymphs on soybean leaves, read-out: control in at least one of the two categories (mortality or growth inhibition)
Procedure: Example B2: Euschistus heros (Neotropical Brown Stink Bug)
Soybean leaves on agar in 24-well microtiter plates were sprayed with aqueous test solutions prepared from 10′000 ppm DMSO stock solutions. After drying the leaves were infested with N2 nymphs. The samples were assessed for mortality and growth inhibition in comparison to untreated samples 5 days after infestation.

[2] = system: Myzus persicae (green peach aphid); assay: Example B6: Myzus persicae (green peach aphid), intrinsic activity; conditions: 120 h, test rate of 12 ppm, 5 days after infestation, sucrose solution, infested pea seedlings
Source text: Example B6: Myzus persicae (Green Peach Aphid): Intrinsic Activity
Test compounds prepared from 10′000 ppm DMSO stock solutions were applied by pipette into 24-well microtiter plates and mixed with sucrose solution. The plates were closed with a stretched Parafilm. A plastic stencil with 24 holes was placed onto the plate and infested pea seedlings were placed directly on the Parafilm. The infested plate was closed with a gel blotting paper and another plastic stencil and then turned upside down. The samples were assessed for mortality 5 days after infestation.

[3] = system: Spodoptera littoralis (Egyptian cotton leaf worm); assay: Example B8: Spodoptera littoralis (Egyptian cotton leaf worm), uptake by lettuce roots from agar; conditions: 144 h, test rate of 12.5 ppm, 6 days after infestation, compound absorbed by lettuce roots, read-out: control in at least one of the three categories (mortality, anti-feeding, or growth inhibition)
Source text: Example B8: Spodoptera littoralis (Egyptian Cotton Leaf Worm)
Test compounds were applied by pipette from 10′000 ppm DMSO stock solutions into 24-well plates and mixed with agar. Lettuce seeds were placed onto the agar and the multi well plate was closed by another plate which contained also agar. After 7 days the compound was absorbed by the roots and the lettuce grew into the lid plate. The lettuce leaves were then cut off into the lid plate. Spodoptera eggs were pipetted through a plastic stencil onto a humid gel blotting paper and the lid plate was closed with it. The samples were assessed for mortality, anti-feedant effect and growth inhibition in comparison to untreated samples 6 days after infestation.

[4] = system: Plutella xylostella (diamond back moth); assay: Example B5: Plutella xylostella (diamond back moth), artificial diet, 24-well, eggs; conditions: 192 h, application rate of 200 ppm, 8 days after infestation, read-out: control in at least one of the two categories (mortality or growth inhibition)
Procedure: Example B5: Plutella xylostella (Diamond Back Moth)
24-well microtiter plates with artificial diet were treated with aqueous test solutions prepared from 10′000 ppm DMSO stock solutions by pipetting. After drying, Plutella eggs were pipetted through a plastic stencil onto a gel blotting paper and the plate was closed with it. The samples were assessed for mortality and growth inhibition in comparison to untreated samples 8 days after infestation.

[5] = system: Diabrotica balteata (corn root worm); assay: Example B1: Diabrotica balteata (corn root worm), sprayed maize sprouts, L2 larvae; conditions: 96 h, application rate of 200 ppm, 4 days after infestation, L2 larvae on maize sprouts, read-out: control in at least one of the two categories (mortality or growth inhibition)
Procedure: Example B1: Diabrotica Balteata (Corn Root Worm)
Maize sprouts placed onto an agar layer in 24-well microtiter plates were treated with aqueous test solutions prepared from 10′000 ppm DMSO stock solutions by spraying. After drying, the plates were infested with L2 larvae (6 to 10 per well). The samples were assessed for mortality and growth inhibition in comparison to untreated samples 4 days after infestation.

[6] = system: Bemisia tabaci (cotton white fly); assay: Example B3: Bemisia tabaci (cotton white fly), feeding/contact activity; conditions: foliar, 144 h, application rate of 200 ppm, 6 days after incubation, adult white flies on cotton leaf discs
Procedure: Example B3: Bemisia tabaci (Cotton White Fly): Feeding/Contact Activity
Cotton leaf discs were placed on agar in 24-well microtiter plates and sprayed with aqueous test solutions prepared from 10′000 ppm DMSO stock solutions. After drying the leaf discs were infested with adult white flies. The samples were checked for mortality 6 days after incubation.

[7] = system: Spodoptera littoralis (Egyptian cotton leaf worm); assay: Example B7: Spodoptera littoralis (Egyptian cotton leaf worm), sprayed cotton leaf discs, L1 larvae; conditions: foliar, 72 h, application rate of 200 ppm, 3 days after infestation, L1 larvae on cotton leaf discs, read-out: control in at least one of the three categories (mortality, anti-feeding or growth inhibition)
Procedure: Example B7: Spodoptera littoralis (Egyptian Cotton Leaf Worm)
Cotton leaf discs were placed onto agar in 24-well microtiter plates and sprayed with aqueous test solutions prepared from 10′000 ppm DMSO stock solutions. After drying the leaf discs were infested with five L1 larvae. The samples were assessed for mortality, anti-feeding effect, and growth inhibition in comparison to untreated samples 3 days after infestation. Control of Spodoptera littoralis by a test sample is given when at least one of the categories mortality, anti-feedant effect, and growth inhibition is higher than the untreated sample.

[8] = system: Chilo suppressalis (striped rice stemborer); assay: Example B4: Chilo suppressalis (striped rice stemborer), artificial diet, L2 larvae; conditions: 144 h, application rate of 200 ppm, 6 days after infestation, L2 larvae on artificial diet, read-out: control in at least one of the three categories (mortality, anti-feeding or growth inhibition)
Procedure: Example B4: Chilo suppressalis (Striped rice stemborer)
24-well microtiter plates with artificial diet were treated with aqueous test solutions prepared from 10′000 ppm DMSO stock solutions by pipetting. After drying, the plates were infested with L2 larvae (6-8 per well). The samples were assessed for mortality, anti-feeding effect, and growth inhibition in comparison to untreated samples 6 days after infestation. Control of Chilo suppressalis by a test sample is given when at least one of the categories mortality, anti-feedant effect, and growth inhibition is higher than the untreated sample.

[9] = system: Plutella xylostella (diamondback moth); assay: Example B10: Plutella xylostella (diamondback moth), 96-well artificial diet; conditions: 216 h, application rate of 500 ppm, 9 days after infestation, eggs/L1 larvae
Procedure: Example B10: Plutella xylostella (Diamondback Moth)
96-well microtiter plates containing artificial diet were treated with aqueous test solutions, prepared from 10′000 ppm DMSO stock solutions, by a liquid handling robot. After drying, eggs (˜30 per well) were infested onto a netted lid which was suspended above the diet. The eggs hatch and L1 larvae move down to the diet. The samples were assessed for mortality 9 days after infestation.

[10] = system: Myzus persicae (green peach aphid); assay: Example B9: Myzus persicae (green peach aphid), 96-well sucrose solution; conditions: 120 h, application rate of 50 ppm, 5 days after infestation
Source text: Example B9: Myzus persicae (Green Peach Aphid)
Test compounds prepared from 10′000 ppm DMSO stock solutions were applied by a liquid handling robot into 96-well microtiter plates and mixed with a sucrose solution. Parafilm was stretched over the 96-well microtiter plate and a plastic stencil with 96 holes was placed onto the plate. Aphids were sieved into the wells directly onto the Parafilm. The infested plates were closed with a gel blotting card and a second plastic stencil and then turned upside down. The samples were assessed for mortality 5 days after infestation.

[11] = system: Tetranychus urticae (two-spotted spider mite); assay: Example B11: Tetranychus urticae (two-spotted spider mite), feeding/contact activity; conditions: foliar, 192 h
Procedure: Example B11: Tetranychus urticae (Two-Spotted Spider Mite): Feeding/Contact Activity
Bean leaf discs on agar in 24-well microtiter plates were sprayed with aqueous test solutions prepared from 10′000 ppm DMSO stock solutions. After drying the leaf discs were infested with a mite population of mixed ages. The samples were assessed for mortality on mixed population (mobile stages) 8 days after infestation.

CC(NC(=O)c1cc(Br)cc(C(F)(F)F)c1)c1nccnc1-c1ncc(OCC(F)F)cn1 (stereo not drawn) [Compound P35, 3-bromo-N-[1-[3-[5-(2,2-difluoroethoxy)pyrimidin-2-yl]pyrazin-2-yl]ethyl]-5-(trifluoromethyl)benzamide]
≥ 80%: percent control (mortality or growth inhibition) at 200 ppm [1] | mortality at 12 ppm [2] | percent control (mortality, anti-feeding or growth inhibition) at 12.5 ppm [3] | percent control (mortality or growth inhibition) at 200 ppm [4] | percent control (mortality or growth inhibition) at 200 ppm [5] | mortality at 200 ppm [6] | percent control (mortality, anti-feeding or growth inhibition) at 200 ppm [7] | control at 200 ppm [8]

C[C@H](NC(=O)c1cc(C(F)(F)F)cc(C(F)(F)F)c1)c1nccnc1-c1ccc(C#N)cn1 [Compound P34, N-[(1S)-1-[3-(5-cyano-2-pyridyl)pyrazin-2-yl]ethyl]-3,5-bis(trifluoromethyl)benzamide]
≥ 80%: percent control (mortality, anti-feeding or growth inhibition) at 12.5 ppm [3] | percent control (mortality or growth inhibition) at 200 ppm [4] | percent control (mortality or growth inhibition) at 200 ppm [5] | mortality at 500 ppm [9] | percent control (mortality, anti-feeding or growth inhibition) at 200 ppm [7] | control at 200 ppm [8]

CC(NC(=O)c1cc(Cl)cc(C(F)(F)F)c1)c1nccnc1-c1ncc(OCC(F)(F)F)cn1 (stereo not drawn) [Compound P37, 3-chloro-N-[1-[3-[5-(2,2,2-trifluoroethoxy)pyrimidin-2-yl]pyrazin-2-yl]ethyl]-5-(trifluoromethyl)benzamide]
≥ 80%: percent control (mortality or growth inhibition) at 200 ppm [1] | percent control (mortality, anti-feeding or growth inhibition) at 12.5 ppm [3] | percent control (mortality or growth inhibition) at 200 ppm [4] | percent control (mortality or growth inhibition) at 200 ppm [5] | percent control (mortality, anti-feeding or growth inhibition) at 200 ppm [7] | control at 200 ppm [8]

CC(NC(=O)c1cc(OC(F)F)cc(C(F)(F)F)c1)c1nccnc1-c1ncc(OC(F)F)cn1 (stereo not drawn) [Compound P26, 3-(difluoromethoxy)-N-[1-[3-[5-(difluoromethoxy)pyrimidin-2-yl]pyrazin-2-yl]ethyl]-5-(trifluoromethyl)benzamide]
≥ 80%: mortality at 12 ppm [2] | percent control (mortality or growth inhibition) at 200 ppm [4] | mortality at 50 ppm [10] | percent control (mortality or growth inhibition) at 200 ppm [5] | mortality at 500 ppm [9] | percent control (mortality, anti-feeding or growth inhibition) at 200 ppm [7] | control at 200 ppm [8]

CC(NC(=O)c1cc(OC(F)F)cc(C(F)(F)F)c1)c1nccnc1-c1ncc(OCC(F)F)cn1 (stereo not drawn) [Compound P28, N-[1-[3-[5-(2,2-difluoroethoxy)pyrimidin-2-yl]pyrazin-2-yl]ethyl]-3-(difluoromethoxy)-5-(trifluoromethyl)benzamide]
≥ 80%: percent control (mortality or growth inhibition) at 200 ppm [1] | mortality at 12 ppm [2] | percent control (mortality or growth inhibition) at 200 ppm [4] | mortality at 50 ppm [10] | percent control (mortality or growth inhibition) at 200 ppm [5] | mortality at 500 ppm [9] | percent control (mortality, anti-feeding or growth inhibition) at 200 ppm [7] | control at 200 ppm [8]

C[C@H](NC(=O)c1cc(C(F)(F)F)cc(C(F)(F)F)c1)c1nccnc1-c1ccc(OC(F)F)cn1 [Compound P24, N-[(1S)-1-[3-[5-(difluoromethoxy)-2-pyridyl]pyrazin-2-yl]ethyl]-3,5-bis(trifluoromethyl)benzamide]
≥ 80%: percent control (mortality or growth inhibition) at 200 ppm [1] | percent control (mortality, anti-feeding or growth inhibition) at 12.5 ppm [3] | percent control (mortality or growth inhibition) at 200 ppm [4] | percent control (mortality or growth inhibition) at 200 ppm [5] | mortality at 500 ppm [9] | percent control (mortality, anti-feeding or growth inhibition) at 200 ppm [7] | control at 200 ppm [8]

CC(NC(=O)c1cc(Br)cc(C(F)(F)F)c1)c1nccnc1-c1ncc(OC(F)F)cn1 (stereo not drawn) [Compound P23, 3-bromo-N-[1-[3-[5-(difluoromethoxy)pyrimidin-2-yl]pyrazin-2-yl]ethyl]-5-(trifluoromethyl)benzamide]
≥ 80%: mortality at 12 ppm [2] | percent control (mortality, anti-feeding or growth inhibition) at 12.5 ppm [3] | percent control (mortality or growth inhibition) at 200 ppm [4] | mortality at 50 ppm [10] | percent control (mortality or growth inhibition) at 200 ppm [5] | mortality at 500 ppm [9] | percent control (mortality, anti-feeding or growth inhibition) at 200 ppm [7] | control at 200 ppm [8]

CC(NC(=O)c1cc(OCC(F)F)cc(C(F)(F)F)c1)c1nccnc1-c1ccc(OCC(F)F)cn1 (stereo not drawn) [Compound P16, 3-(2,2-difluoroethoxy)-N-[1-[3-[5-(2,2-difluoroethoxy)-2-pyridyl]pyrazin-2-yl]ethyl]-5-(trifluoromethyl)benzamide]
≥ 80%: percent control (mortality or growth inhibition) at 200 ppm [4] | mortality at 200 ppm [11] | mortality at 500 ppm [9] | control at 200 ppm [8]

— US20220169629A1, “PESTICIDALLY ACTIVE DIAZINE-AMIDE COMPOUNDS” (SYNGENTA CROP PROTECTION AG, priority 2019, published 2022)
